This note sets out measurements from US20250170126A1 (MITSUBISHI TANABE PHARMA CORPORATION, priority 2022, published 2025).

Human B0AT1, sequence (Q695T7 whole entry): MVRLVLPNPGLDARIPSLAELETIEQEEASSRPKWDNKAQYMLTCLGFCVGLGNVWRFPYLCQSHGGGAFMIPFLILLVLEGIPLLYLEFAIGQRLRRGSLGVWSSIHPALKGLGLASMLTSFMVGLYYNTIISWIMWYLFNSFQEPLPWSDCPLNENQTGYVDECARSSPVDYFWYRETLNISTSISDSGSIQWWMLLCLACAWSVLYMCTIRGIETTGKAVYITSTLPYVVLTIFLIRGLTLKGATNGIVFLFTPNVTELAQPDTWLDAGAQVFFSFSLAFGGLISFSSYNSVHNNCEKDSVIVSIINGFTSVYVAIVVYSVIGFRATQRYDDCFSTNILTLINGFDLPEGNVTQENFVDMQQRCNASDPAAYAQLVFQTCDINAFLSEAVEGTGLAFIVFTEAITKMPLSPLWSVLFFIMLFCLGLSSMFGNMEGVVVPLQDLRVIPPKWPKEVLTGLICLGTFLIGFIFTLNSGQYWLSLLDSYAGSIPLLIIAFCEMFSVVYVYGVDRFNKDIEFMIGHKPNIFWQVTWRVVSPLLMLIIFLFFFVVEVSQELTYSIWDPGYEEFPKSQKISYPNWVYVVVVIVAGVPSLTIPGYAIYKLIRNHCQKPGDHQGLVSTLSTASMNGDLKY

This assay addresses Human B0AT1 (Homo sapiens (Human), UniProt Q695T7). As to the kind of experiment: hB0AT1 inhibitory test (phenylalanine uptake). It is filed as cell-based. Conditions: Human B0AT1 stable expression CHO cells; [3H]-L-phenylalanine uptake, phenylalanine 0.25 mM. As to the method:
A test compound dissolved in dimethyl sulfoxide (DMSO) was added to a 96 well plate for solid phase radioactivity measurement containing a scintillator at the bottom of the well (final concentration of DMSO 0.5%). DMSO alone as a control and DMSO containing N-(4-bromophenyl)-3,5-dichloro-2-hydroxybenzamide (final concentration […]) for the is measurement of B0AT1 non-specific uptake were similarly added at 0.5 μL per well. Human B0AT1 stable expression CHO cells suspended in a buffer (buffer containing 96 mM sodium chloride, 2 mM potassium chloride, 1.8 mM calcium chloride, 1 mM magnesium chloride, 0.01% bovine serum albumin, and 10 mM 2-[4-(2-hydroxyethyl)-1-piperazinyl]ethanesulfonic acid) were added by 90 μL to 75000 cells/well. After standing at ordinary temperature for 30 min or longer, the cells were subjected to a phenylalanine uptake experiment. A buffer containing L-phenylalanine and [3,4,5-3H]-L-phenylalanine was added by 10 μL per well (final concentration of phenylalanine 0.25 mM), and the radioactivity of the plate bottom surface at ordinary temperature was measured with a scintillation counter over time, and the radioactivity value after 100 to 200 min was analyzed. A value obtained by subtracting the B0AT1 non-specific uptake from the control uptake was taken as 100%, and the concentration necessary for each test compound to achieve 50% inhibition (IC50 value) was determined by nonlinear regression using a logistic model.
One may read the IC50 as the point on the concentration scale where inhibition reaches its midpoint. `CNC(=O)CC(COC)N(CCOC)C(=O)CNC(=O)/C=C/c1ccc(C(F)(F)F)cc1` (centres unmarked) [I-130, 4-methoxy-3-[2-methoxyethyl-[2-[[(E)-3-[4-(trifluoromethyl)phenyl]prop-2-enoyl]amino]acetyl]amino]-N-methylbutanamide] came in with an IC50 of 486 nM.
Molecule `O=C(/C=C/c1ccc(C(F)(F)F)cc1)NCC(=O)N1CCCn2ncnc2C1` [I-72] registered an IC50 of 317 nM.
Regarding `O=C(/C=C/c1ccc(C(F)(F)F)cc1)NCC(=O)N1CCc2cc(Br)ccc21` [I-260], the concentration for half-maximal inhibition (IC50) came to 24 nM. This IC50 is about 13-fold lower than that of the molecule before.
As for `O=C(/C=C/c1ccc(C(F)(F)F)cc1)NCC(=O)N1CCc2ccncc2C1` [I-36], the figure is 15 nM.
In turn, `O=C(/C=C/c1ccc(C(F)(F)F)cc1)NCC(=O)N1CCCn2ccnc2C1` [I-179] yielded an IC50 of 60 nM.
Molecule `Cn1nc2n(c1=O)CCN(C(=O)CNC(=O)/C=C/c1ccc(C(F)(F)F)cc1)C2` [I-79] had a concentration for half-maximal inhibition (IC50) of 51 nM. This IC50 and that of the molecule before are within 1.5-fold of each other.
The molecule `O=C(/C=C/c1ccc(C(F)(F)F)cc1)NCC(=O)N1CCc2nccn2CC1` [I-64] displayed a 50% inhibitory concentration (IC50) of 195 nM.
The molecule `O=C(/C=C/c1ccc(C(F)(F)F)cc1)NCC(=O)N1CCc2c(cccc2C(=O)O)C1` [I-271] displayed an IC50 of 699 nM.
Molecule `CCN(CC)C(=O)c1cnn2c1CN(C(=O)CNC(=O)/C=C/c1ccc(C(F)(F)F)cc1)CC2` [I-223] had an IC50 of 41 nM.
As for `O=C(/C=C/c1ccc(C(F)(F)F)cc1)NCC(=O)N1CCN2CCOCC2C1` (centres unmarked) [I-41], the figure is 833 nM; as for `O=C(/C=C/c1ccc(C(F)(F)F)cc1)NCC(=O)N1CCn2nc(C(=O)O)c(C3CC3)c2C1` [I-268], 79 nM.
As to `O=C(/C=C/c1ccc(C(F)(F)F)cc1)NCC(=O)N1Cc2nc[nH]c2C1` [I-63], the IC50 was 164 nM.
On to `Cn1nnc2c1CCN(C(=O)CNC(=O)/C=C/c1ccc(C(F)(F)F)cc1)C2` [I-100], for which the IC50 is 79 nM.
In turn, `COCCN(CCOC)C(=O)CNC(=O)/C=C/c1ccc(C(F)(F)F)cc1` [I-4] registered an IC50 of 285 nM.
As for `O=C(/C=C/c1ccc(C(F)(F)F)cc1)NCC(=O)N1Cc2nccnc2C1` [I-178], the figure is 60 nM; as for `O=C(/C=C/c1ccc(C(F)(F)F)cc1)NCC(=O)N1CCn2ncc(C(=O)O)c2C1` [I-274], 531 nM; as for `COCCN(Cc1cnccn1)C(=O)CNC(=O)/C=C/c1ccc(C(F)(F)F)cc1` [I-175], 71 nM.
The same measure for `O=C(/C=C/c1ccc(C(F)(F)F)cc1)NCC(=O)N1CCc2ncncc2C1` [I-78]: 56 nM.
As for `O=C(/C=C/c1ccc(C(F)(F)F)cc1)NCC(=O)N1CCc2ccc(Br)cc2C1` [I-195], the figure is 54 nM; as for `CN1CCN(C(=O)CNC(=O)/C=C/c2ccc(C(F)(F)F)cc2)CC1c1ccccc1` (centres unmarked) [I-13], 111 nM; as for `O=C(/C=C/c1ccc(C(F)(F)F)cc1)NCC(=O)N1C[C@H](O)C[C@@H]1c1ccccc1` [I-141, (E)-N-[2-[(2R,4R)-4-hydroxy-2-phenylpyrrolidin-1-yl]-2-oxoethyl]-3-[4-(trifluoromethyl)phenyl]prop-2-enamide], 1720 nM.
For the molecule `Cn1cc2c(n1)CCN(C(=O)CNC(=O)/C=C/c1ccc(C(F)(F)F)cc1)C2` [I-82], 64 nM corresponded to half-maximal inhibition (IC50).
The molecule `O=C(/C=C/c1ccc(C(F)(F)F)cc1)NCC(=O)N1CCNC(=O)CC1` [I-15] gave a 50% inhibitory concentration (IC50) of 228 nM.
Molecule `O=C(/C=C/c1ccc(C(F)(F)F)cc1)NCC(=O)N1CCc2cccc(Br)c2C1` [I-196] displayed an IC50 of 17 nM.
The same measure for `COCCN(Cc1cccnn1)C(=O)CNC(=O)/C=C/c1ccc(C(F)(F)F)cc1` [I-59]: 503 nM.
The same measure for `O=C(/C=C/c1ccc(C(F)(F)F)cc1)NCC(=O)N1CCn2ncc(C(=O)N3CCCC3)c2C1` [I-222]: 33 nM; for `CN1CCN(C(=O)CNC(=O)/C=C/c2ccc(OC(F)(F)F)cc2)CC1` [I-112]: 56 nM; for `O=C(/C=C/c1ccc(C(F)(F)F)cc1)NCC(=O)N1CCc2cn[nH]c2C1` [I-42]: 73 nM.
The same measure for `Cc1nnc(CN(CC2(F)CC2)C(=O)CNC(=O)/C=C/c2ccc(C(F)(F)F)cc2)o1` [I-209]: 32 nM.
